Laboratory results as given in patent US11351291B2, “Systems or apparatuses and methods for performing dialysis” (ADVITOS GMBH, priority 2016, dated 2022).

Biological target: T1, albumin (Homo sapiens, UniProt P02768)
Experiment: pH dependence of binding affinity for albumin
Conditions: pH above about 3
Excerpt: Adjusting the pH of the fluids to the acidic and/or basic range makes it possible to selectively influence the binding of different substances to the respective carrier proteins or adsorbers. […] For example, the binding of copper ions to albumin can be weakened in this way so that free, dissolved copper ions in the following filter can be removed by dialysis, filtration, diafiltration, centrifugation, a field, or sorting by weight difference. Analogously, the pH of the fluid can be adjusted to the basic range so that the toxins liberated in the alkaline range can then be eliminated from the fluid by dialysis, filtration or diafiltration. […] A pH range of 8-13 is often preferred.
Devices for adjusting the pH include especially devices for adding acid or base, for example metering pumps. Appropriate acids or bases arc aqueous solutions of biologically compatible acids or bases. It is generally preferable to use acids or bases whose conjugate bases or acids are ions that occur naturally in the human organism. Examples of acids which can be used are hydrochloric acid, sulfuric acid or acetic acid, hydrochloric acid being preferred. Examples of bases which can be used are sodium hydroxide solution or potassium hydroxide solution, sodium hydroxide solution being preferred. […]

T1 sequence (P02768 25-609): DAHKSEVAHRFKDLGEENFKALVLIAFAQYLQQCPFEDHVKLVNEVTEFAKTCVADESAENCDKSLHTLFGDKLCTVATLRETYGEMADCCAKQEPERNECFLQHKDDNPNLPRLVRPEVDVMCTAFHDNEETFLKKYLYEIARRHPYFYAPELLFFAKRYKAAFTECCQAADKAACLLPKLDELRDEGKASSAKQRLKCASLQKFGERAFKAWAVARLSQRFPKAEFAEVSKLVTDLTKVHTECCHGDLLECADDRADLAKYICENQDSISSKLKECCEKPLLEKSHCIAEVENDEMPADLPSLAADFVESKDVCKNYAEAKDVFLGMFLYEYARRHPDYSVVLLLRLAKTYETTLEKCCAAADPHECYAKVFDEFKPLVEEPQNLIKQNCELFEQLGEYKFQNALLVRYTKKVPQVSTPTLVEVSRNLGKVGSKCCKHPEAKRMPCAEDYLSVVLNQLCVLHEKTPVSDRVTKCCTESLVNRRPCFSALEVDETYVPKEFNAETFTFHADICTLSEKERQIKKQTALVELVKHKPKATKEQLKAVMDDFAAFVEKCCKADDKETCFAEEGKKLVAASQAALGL

Row | Compound | binding affinity for albumin
1 | Copper(II) | particularly high binding affinity

Same assay, conditions: pH range around 2

Row | Compound | binding affinity for albumin
2 | Copper(II) | significantly lowered

Biological target: T1, albumin
Experiment: not given
Conditions: binding to albumin; reported association constants; cited from earlier work

Row | Compound | Association constant, KA [M⁻¹]
3 | [Ca+2] [Calcium] | 1510
4 | Copper(II) | 1.5e+16
5 | C[C@]12CC[C@H]3[C@@H](CCC4=CC(=O)CC[C@@]43C)[C@@H]1CC[C@@H]2O [Testosterone] | 24000
6 | C[C@]12CCC(=O)C=C1CC[C@@H]1[C@@H]2[C@@H](O)C[C@]2(C=O)[C@@H](C(=O)CO)CC[C@@H]12 [Aldosterone] | 3200
7 | [Zn+2] [Zinc(II)] | 3.4e+07
8 | [Mg+2] [Magnesium] | 100
9 | N[C@@H](Cc1c[nH]c2ccccc12)C(=O)O [L-tryptophan] | 10000
10 | C=CC1=C(C)c2cc3[n-]c(cc4[n-]c(cc5nc(cc1n2)C(C)=C5C=C)c(C)c4CCC(=O)O)c(CCC(=O)O)c3C.O.[Fe+2] [Hematin] | 1.1e+08
11 | CC(=O)[C@H]1CC[C@H]2[C@@H]3CCC4=CC(=O)CC[C@]4(C)[C@H]3CC[C@]12C [Progesterone] | 360000
12 | C[C@]12CCC(=O)C=C1CC[C@@H]1[C@@H]2[C@@H](O)C[C@@]2(C)[C@H]1CC[C@]2(O)C(=O)CO [Cortisol] | 5000
13 | CCCCC[C@H](O)/C=C/[C@H]1[C@H](O)CC(=O)[C@@H]1CCCCCCC(=O)O [Eicosanoids (PGE1), PGE1] | 70000
14 | Cl [Chloride] | 720
15 | C=C1CC[C@H](O)C/C1=C/C=C1\CCC[C@]2(C)[C@@H]([C@H](C)CCCC(C)(C)O)CC[C@@H]12 [25,OH—VitaminD3] | 600000
16 | C/C1=C2N=C(/C=C3N=C(/C(C)=C4\[N-]C(C(CC(N)=O)C4(C)CCC(=O)NCC(C)OP(=O)([O-])OC4C(CO)OC(n5cnc6cc(C)c(C)cc65)C4O)C4(C)N=C1C(CCC(N)=O)C4(C)CC(N)=O)C(CCC(N)=O)C\3(C)C)C(CCC(N)=O)C/2(C)CC(N)=O.O.[Co+3].[OH-] (centres unmarked) [Aquocobalamin] | 2e+07
17 | t-25-(OH)2—Vitamin D3 | 50000
